In ChEMBL document CHEMBL1201862, “PubChem BioAssay data set” (2004):
Several values for one entry are separate records, joined by “and”; a condition that tells them apart may be missing. Identical values can stand only once.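 Interpolation was linear, between the two tested concentrations surrounding the appropriate level; five concentrations were tested over 48 hours in 96-well plates. GI50: concentration for 50% inhibition of growth.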 Activity calls are given as the source filed them. Rule as the data show it: active = GI50 up to about 1.1 µM and inactive = higher.

How the values were obtained:
Assay in all cases: NCI anticancer screen, dose series, 48 h
[1] = system: SK-MEL-2
[2] = system: SF-268
[3] = system: NCI-H522
[4] = system: K562
[5] = system: ACHN
[6] = system: OVCAR-4
[7] = system: COLO 205
[8] = system: KM-20L2
[9] = system: NCI-H23
[10] = system: SNB-78
[11] = system: SK-MEL-28
[12] = system: MOLT-4
[13] = system: LXFL 529
[14] = system: KM12
[15] = system: DMS-114
[16] = system: SK-OV-3
[17] = system: M19-MEL
[18] = system: RPMI-8226
[19] = system: NCI-H460
[20] = system: SR
[21] = system: HL-60
[22] = system: CCRF-CEM
[23] = system: UACC-62
[24] = system: SNB-75
[25] = system: SF-539
[26] = system: HT-29
[27] = system: SNB-19
[28] = system: M14
[29] = system: DLD-1
[30] = system: SN12C
[31] = system: HCT-116
[32] = system: HOP-92
[33] = system: 786-0
[34] = system: LOX IMVI
[35] = system: HOP-18
[36] = system: SF-295
[37] = system: A498
[38] = system: CAKI-1
[39] = system: U-251
[40] = system: OVCAR-8
[41] = system: OVCAR-3
[42] = system: Malme-3M
[43] = system: IGROV-1
[44] = system: OVCAR-5
[45] = system: HCC 2998
[46] = system: DMS-273
[47] = system: SW-620
[48] = system: HCT-15
[49] = system: A549
[50] = system: TK-10
[51] = system: UO-31
[52] = system: HOP-62
[53] = system: UACC-257
[54] = system: SK-MEL-5

Measured: GI50

CCCSc1nc(-c2ccc(OC)cc2)c(C#N)c(=O)n1C1OC(COC(C)=O)C(OC(C)=O)C(OC(C)=O)C1OC(C)=O (stereo not drawn)
inactive: [1] > 100 µM | [2] > 100 µM | [3] > 100 µM | [4] > 100 µM | [5] > 100 µM | [6] > 100 µM | [7] > 100 µM | [8] > 100 µM and 54.6 µM | [9] > 100 µM | [10] 99.3 µM | [11] > 100 µM | [12] > 100 µM | [13] > 100 µM | [14] > 100 µM | [15] > 100 µM | [16] > 100 µM | [17] > 100 µM | [18] > 100 µM | [19] > 100 µM | [20] > 100 µM | [21] > 100 µM | [22] > 100 µM | [23] > 100 µM | [24] 42.3 µM | [25] > 100 µM | [26] > 100 µM and 65.9 µM

Nc1nc(Cl)c2ncn(CCCC(c3ccccc3)P(=O)(O)O)c2n1 (stereo not drawn)
> 100 µM: [48]
inactive: [1] > 100 µM | [27] > 100 µM | [2] > 100 µM | [3] > 100 µM | [28] > 100 µM | [29] > 100 µM | [30] > 100 µM | [31] > 100 µM | [4] > 100 µM | [5] > 100 µM | [32] > 100 µM | [7] > 100 µM | [33] > 100 µM | [34] > 100 µM | [35] > 100 µM | [36] > 100 µM | [37] > 100 µM | [8] > 100 µM | [38] > 100 µM | [9] > 100 µM | [10] > 100 µM | [11] > 100 µM | [39] > 100 µM | [40] > 100 µM | [41] > 100 µM | [13] > 100 µM | [14] > 100 µM | [15] > 100 µM | [42] > 100 µM | [16] > 100 µM | [17] > 100 µM | [18] > 100 µM | [43] > 100 µM | [19] > 100 µM | [20] > 100 µM | [44] > 100 µM | [45] > 100 µM | [21] > 100 µM | [46] > 100 µM | [22] > 100 µM | [47] > 100 µM | [23] > 100 µM | [24] > 100 µM | [25] > 100 µM | [26] > 100 µM | [49] > 100 µM | [50] > 100 µM | [51] > 100 µM | [52] > 100 µM | [53] > 100 µM | [54] > 100 µM
